Two compounds from patent US20250262211A1, “COMBINATION OF RAS INHIBITORS AND […] INHIBITORS FOR THE TREATMENT OF CANCERS” (INSTITUT NATIONAL DE LA SANTÉ ET DE LA RECHERCHE MÉDICALE, priority 2022, published 2025) can be followed below.

Format in all cases: cell-based
Test [1] relates to H23 cells (KRas G12C). In words: Cell confluency of H23 cells under treatment, Incucyte Live-Cell Analysis / amidoblack staining. The conditions noted are these: drug used alone, 1 μM, 35 days. As for the experimental part:
FIG. 1. […] A. Cell confluency was measured twice a week over 35 days of indicated treatments. B. Amidoblack staining of a 6-well plate after 35 of indicated treatments.
Medium was changed twice a week and cell confluency was monitored by Incucyte® Live-Cell Analysis System.

The test system of test [2] is H23 KRAS (G12C)-mutant non-small cell lung cancer (NSCLC) cell line. In words: FUCCI-transduced H23 cells, response/relapse monitored by Incucyte during 50 days. The conditions noted are these: H23, 50 days.
Test [3] relates to Calu-1 KRAS (G12C)-mutant non-small cell lung cancer (NSCLC) cell line. The test is described as follows: FUCCI-transduced Calu-1 cells, response/relapse monitored by Incucyte during 50 days. The conditions noted are these: Calu-1, 50 days.
Setting [4] is: 1 μM tipifarnib added to 1 μM sotorasib.

`C=CC(=O)N1CCN(c2nc(=O)n(-c3c(C)ccnc3C(C)C)c3nc(-c4c(O)cccc4F)c(F)cc23)[C@@H](C)C1` [sotorasib, 6-fluoro-7-(2-fluoro-6-hydroxyphenyl)-1-[4-methyl-2-(propan-2-yl)pyridin-3-yl]-4-[(2S)-2-methyl-4-(prop-2-enoyl)piperazin-1-yl]-1H,2H-pyrido[2,3-d]pyrimidin-2-one]: the “anti-tumor effect (cell confluency)” value in test [1] is recorded as “did not show a significant anti-tumor effect”. Further, the “emergence of resistant proliferative clones (total cell number)” value (from here on “emergence”) in test [2] (1 μM sotorasib alone) and in test [3] (1 μM sotorasib alone) was “developed resistant proliferative clones (RPC)” each time.

For the compound `Cn1cncc1[C@@](N)(c1ccc(Cl)cc1)c1ccc2c(c1)c(-c1cccc(Cl)c1)cc(=O)n2C` [tipifarnib, (R)-6-[amino (4-chlorophenyl) (1-methyl-1H-imidazol-5-yl)methyl]-4-(3-chlorophenyl)-1-methyl-2 (1H)-quinolinone], the “anti-tumor effect (cell confluency)” value in test [1] is “did not show a significant anti-tumor effect”. In test [2] (setting [4]), the cell cycle dynamics result is “strongly impacting cell cycle dynamics, resulting in cell death” and the “emergence” value is given as “prevented the emergence of RPC”. For the same compound, in test [3] (setting [4]), the cell cycle dynamics result is “strongly impacting cell cycle dynamics, resulting in cell death” and the “emergence” value is “prevented the emergence of RPC”.
